Experimental data: PubChem BioAssay (NCI)
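Five concentrations, 48 hours, 96-well plates. GI50 = concentration required for 50% inhibition of growth. TGI denotes the concentration required for complete inhibition of growth.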

What was measured:
Assay in all cases: NCI-60 cell line screen, 48 h
[1] = tested on: SNB-19 CNS
[2] = tested on: MALME-3M melanoma
[3] = tested on: SK-OV-3 ovarian
[4] = tested on: SF-539 CNS
[5] = tested on: CAKI-1 renal
[6] = tested on: MDA-MB-231 breast
[7] = tested on: NCI/ADR-RES ovarian
[8] = tested on: HS 578T breast
[9] = tested on: SR leukemia
[10] = tested on: UO-31 renal
[11] = tested on: K-562 leukemia
[12] = tested on: UACC-257 melanoma
[13] = tested on: HOP-92 NSCLC
[14] = tested on: ACHN renal
[15] = tested on: SF-268 CNS
[16] = tested on: PC-3 prostate
[17] = tested on: SK-MEL-5 melanoma
[18] = tested on: SNB-75 CNS
[19] = tested on: COLO 205 colon
[20] = tested on: HL-60(TB) leukemia
[21] = tested on: IGROV1 ovarian
[22] = tested on: NCI-H460 lung
[23] = tested on: MCF7 breast
[24] = tested on: MOLT-4 leukemia
[25] = tested on: OVCAR-8 ovarian
[26] = tested on: DU-145 prostate
[27] = tested on: EKVX NSCLC
[28] = tested on: NCI-H522 lung
[29] = tested on: HT29 colon
[30] = tested on: RPMI-8226 leukemia
[31] = tested on: NCI-H226 lung
[32] = tested on: SN12C renal
[33] = tested on: OVCAR-4 ovarian
[34] = tested on: T-47D breast
[35] = tested on: A498 renal
[36] = tested on: HCT-15 colon
[37] = tested on: SK-MEL-28 melanoma
[38] = tested on: OVCAR-5 ovarian
[39] = tested on: U251 CNS
[40] = tested on: OVCAR-3 ovarian
[41] = tested on: A549 NSCLC
[42] = tested on: TK-10 renal
[43] = tested on: KM12 colon
[44] = tested on: SF-295 CNS
[45] = tested on: HCT-116 colon
[46] = tested on: HCC-2998 colon
[47] = tested on: MDA-MB-435
[48] = tested on: HOP-62 NSCLC
[49] = tested on: 786-0 renal

COc1cc(/C=C/c2cc(/C=C/c3ccc(O)c(OC)c3)nc(N)n2)ccc1O
GI50 [1]: 1810 nM | TGI [1]: 7.95 µM | GI50 [2]: 2710 nM | TGI [2]: 6.76 µM | GI50 [3]: 2600 nM | TGI [3]: 8.23 µM | GI50 [4]: 2050 nM | TGI [4]: 5.73 µM | GI50 [5]: 2230 nM | TGI [5]: 6.46 µM | GI50 [6]: 1450 nM | TGI [6]: 4.08 µM | GI50 [7]: 2.88 µM | TGI [7]: 18.8 µM | GI50 [8]: 524 nM | TGI [8]: 2990 nM | GI50 [9]: 720 nM | TGI [9]: 3.58 µM | GI50 [10]: 2090 nM | TGI [10]: 7.58 µM | GI50 [11]: 2300 nM | TGI [11]: 8.31 µM | GI50 [12]: 1530 nM | TGI [12]: 3.5 µM | GI50 [13]: 1260 nM | TGI [13]: 5.19 µM | GI50 [14]: 2540 nM | TGI [14]: 7.88 µM | GI50 [15]: 2110 nM | TGI [15]: 15.6 µM | GI50 [16]: 1480 nM | TGI [16]: 5.57 µM | GI50 [17]: 1490 nM | TGI [17]: 2890 nM | GI50 [18]: 1260 nM | TGI [18]: 3.34 µM | GI50 [19]: 1800 nM | TGI [19]: 3.24 µM | GI50 [20]: 2180 nM | TGI [20]: 6.17 µM | GI50 [21]: 2950 nM | TGI [21]: 7.08 µM | GI50 [22]: 2050 nM | TGI [22]: 5.2 µM | GI50 [23]: 1810 nM | TGI [23]: 6.33 µM | GI50 [24]: 1010 nM | TGI [24]: 5.19 µM | GI50 [25]: 2190 nM | TGI [25]: 7.24 µM | GI50 [26]: 2400 nM | TGI [26]: 6.31 µM | GI50 [27]: 2220 nM | TGI [27]: 6.83 µM | GI50 [28]: 1240 nM | TGI [28]: 2790 nM | GI50 [29]: 314 nM | TGI [29]: 948 nM | GI50 [30]: 1290 nM | TGI [30]: 4.18 µM | GI50 [31]: 1830 nM | TGI [31]: 4.34 µM | GI50 [32]: 2740 nM | TGI [32]: > 100 µM | GI50 [33]: 1710 nM | TGI [33]: 11.5 µM | GI50 [34]: 2830 nM | TGI [34]: 9.55 µM | GI50 [35]: 1510 nM | TGI [35]: 3.26 µM | GI50 [36]: 2820 nM | TGI [36]: 10.3 µM | GI50 [37]: 1850 nM | TGI [37]: 4.53 µM | GI50 [38]: 2030 nM | TGI [38]: 4.33 µM | GI50 [39]: 1790 nM | TGI [39]: 5.69 µM | GI50 [40]: 2650 nM | TGI [40]: 8.62 µM | GI50 [41]: 2220 nM | TGI [41]: 6.04 µM | GI50 [42]: 3.39 µM | TGI [42]: 9.54 µM | GI50 [43]: 1630 nM | TGI [43]: 3.32 µM | GI50 [44]: 1.93 µM | TGI [44]: 4.54 µM | GI50 [45]: 1100 nM | TGI [45]: 2390 nM | GI50 [46]: 1750 nM | TGI [46]: 3.19 µM

COc1ccc(C(=O)/C=C/c2cc3c(c(OC)c2)OCC(=O)N3)cc1
GI50 [1]: 3260 nM | TGI [1]: > 100 µM | GI50 [7]: 3.14 µM | TGI [7]: > 100 µM | GI50 [8]: 3630 nM | TGI [8]: > 100000 nM | GI50 [9]: 1050 nM | TGI [9]: > 100 µM | GI50 [47]: 3.11 µM | TGI [47]: > 100 µM | GI50 [13]: 1270 nM | TGI [13]: 17.7 µM | GI50 [15]: 3420 nM | TGI [15]: > 100 µM | GI50 [17]: 2880 nM | TGI [17]: > 100000 nM | GI50 [18]: 1660 nM | TGI [18]: 11.5 µM | GI50 [48]: 3.73 µM | TGI [48]: > 100 µM | GI50 [23]: 2320 nM | TGI [23]: > 100 µM | GI50 [25]: 2850 nM | TGI [25]: > 100 µM | GI50 [26]: 2740 nM | TGI [26]: > 100 µM | GI50 [31]: 3880 nM | TGI [31]: > 100 µM | GI50 [36]: 1920 nM | TGI [36]: > 100 µM | GI50 [44]: 4.57 µM | TGI [44]: > 100 µM | GI50 [49]: 3.36 µM | TGI [49]: > 100 µM
